{
  "source": "paper PMC7371863",
  "about": "“Intracellular interplay between cholecystokinin and leptin signalling for satiety control in rats” (Scientific Reports, 2020)",
  "key": {"[1]": {"system": "wild-type C6 cells", "experiment": "Ca2+ imaging (Fura-2), leptin and CCK-8s signalling interaction in wild-type C6 cells", "assay_type": "cell-based, rat", "procedure": "(§1) Rat C6 glioma cells were cultured in Dulbecco’s Modified Eagle Medium/F12 (DMEM/F12) supplemented with 10% FBS, sodium bicarbonate (1.2 g/L), and 1% penicillin/streptomycin antibiotics at 37 °C in 5% CO2. The full-length mouse leptin receptor (ObRb) in pcDNA3.1 vector was kindly provided by Dr. Christian Bjørbaek (BIDMC, Harvard Medical School, Boston, MA, USA) and transfected using Lipofectamine 2000. Subsequently, the cells were cultured in medium containing 500 μg/mL G418 for cell selection.\nC6 cells plated on 35 mm plastic dishes were gently rinsed with buffered salt solution (BSS) consisting of 130 mM NaCl, 5.4 mM KCl, 2 mM CaCl2, 1 mM MgCl2, 5.5 mM D-glucose, and 10 mM HEPES/NaOH (pH 7.4), and incubated in BSS supplemented with 6 µM Fura-2 AM (Dojindo Laboratories, Kumamoto, Japan) for 30 min in a CO2 incubator. Prior to photometry, the cells were rinsed again with BSS, incubated at 37°C for 15 min, and then continuously perfused with BSS at 34°C at a flow rate of 3 mL/min. Fluorescence images were obtained using an upright microscope (Axioplan2; Carl Zeiss, Thornwood, NY, USA) with a water-immersion objective (Achroplan×20 NA0.5w; Carl Zeiss). The wavelength of the excitation UV light (340 nm or 380 nm pulse; 250 msec) was switched using a filter wheel (Lambda 10-2; Sutter Instruments, Novato, CA, USA). The UV light was generated by a full spectrum 300W Xenon bulb (Lambda LS; Sutter Instruments), conducted to the microscope through a liquid light guide. The pair of fluorescent images was processed using a band-pass filter (485–515 nm) and exposed to a multiple format cooled CCD camera (CoolSnap-fx; Photometrics, Tucson, AZ, USA) at 6-sec intervals. The filter wheel and the CCD camera were controlled using digital imaging software (MetaFluor ver. 6.2; Japan Molecular Devices, Tokyo, Japan). The background fluorescence was also subtracted using the software.\nDuring image acquisition, leptin (PeproTech, Rocky Hill, NJ, USA), CCK-4 (Peptide Institute, Inc., Osaka, Japan), CCK-8s (Sigma-Aldrich, St. Louis, MO, USA), AG490 (Calbiochem, San Diego, CA), LY294002 (Calbiochem), LY225910 (R&D Systems, Minneapolis, MN, USA), LGM (LKT Laboratories Inc., St. Paul, MN, USA), and ATP (Sigma-Aldrich) were applied by switching the perfusate. The magnitude of Ca^2+ responses was determined by peak area analysis using Origin 5.0 software (OriginLab, Northampton, MA, USA)."}, "[2]": {"system": "pSTAT3 in C6-ObRb cells", "experiment": "Immunofluorescent staining of pSTAT3 in C6-ObRb cells", "assay_type": "cell-based, rat C6 cells, mouse ObRb", "settings": "for cytosolic pSTAT3 signal with kinase inhibitor: AG490 1 µM or LY294002 50 µM", "procedure": "as §1\n[…] Cells were treatment with AG490 (1 μM) or LY294002 (50 μM) 15 min prior to the leptin stimulation until the time of fixation. These cells were fixed in 4% phosphate-buffered paraformaldehyde for 15 min and washed three times with PBS(−). The fixed samples were then incubated for 2 h at room temperature in 10% donkey serum dissolved in 0.1% Triton-X PBS(−). Next, samples were incubated with 1:100 affinity-purified rabbit phospho-STAT3 (pTyr^705) dissolved in 5% donkey serum PBS(−) for 24 h at 4 °C. After three 20-min PBS(−) rinses, samples were incubated in 1:400 Cy3-conjugated donkey anti-rabbit IgG for 2 h at room temperature. Finally, samples were rinsed with PBS(−) (four 15-min rinses on an orbital shaker) and mounted using Vectashield containing 4′,6-diamidino-2-phenylindole (DAPI).\n(§2) Images were acquired using a confocal laser-scanning microscope (Olympus FV1000 or Nikon A1R MP plus) with a laser diode (405 nm), argon laser (488 nm), and helium neon laser ([…]). The nuclear immunofluorescent intensity (8-bit depth) was analyzed using Photoshop CS 6 software."}, "[3]": {"system": "Zucker fa/fa rats lacking functional leptin receptors", "settings": "cited from earlier work", "from_the_text": "(§3) Also, the effect of CCK on satiety control is attenuated in Zucker fa/fa rats lacking functional leptin receptors. In addition, other evidence implicated that leptin-mediated satiety-controlling systems may strongly interact with CCK systems[18],[50]–[54]. For example, c-Fos expression in oxytocin neurons in the hypothalamic paraventricular nucleus is elevated by leptin administration, and these neurons have axons tha ..."}, "[4]": {"system": "mice", "settings": "sub-threshold CCK and leptin, individually no effect on feeding; cited from earlier work", "from_the_text": "as §3"}, "[5]": {"system": "rats", "settings": "sub-threshold CCK and leptin, individually no effect on feeding; cited from earlier work", "from_the_text": "as §3"}, "[6]": {"system": "meal frequency / meal size", "settings": "CCK; cited from earlier work", "from_the_text": "Although CCK and leptin have been commonly described as satiety controlling peptides, their differential roles have also been highlighted. […] Among the wide variety of intracellular signalling machineries linked to ObRb, it is still uncertain which pathway(s) is/are linked to what type of satiety controls. pSTAT3-ir is used as a genera ..."}, "[7]": {"system": "VMN cells", "experiment": "Ca2+ imaging in rat VMN slices", "assay_type": "cell-based", "settings": "LGM 1 µM; leptin 1–1,000 nM; p < 0.01 two-way ANOVA"}, "[8]": {"system": "CCK-1 receptor", "experiment": "Food access frequency after i.p. LGM following 1-h restricted feeding", "assay_type": "in vivo, rat", "settings": "LGM 10 mg/kg i.p., 3 h before re-feeding; n = 5–6 per group; p < 0.05", "procedure": "Male rats aged 2–3 months were individually housed in originally designed cylindrical chambers (30 cm ϕ, H30 cm). Food was given ad libitum from slits of stainless pellet server placed 22 cm above the floor. During the RF, rats were fed with fatty food paste composed of 50% nutrient commixture chow powder, 20% soybean oil, and 30% water on a glass dish. Following removal of the dish, sterilized saline (1 ml/kg body weight) were i.p. injected. Leftover food paste was weighed after RF to calculate daily intake. Rats were acclimatized to this environment for 4 days. On day 5 of RF, saline or LGM (2 or 10 mg/kg body weight) dissolved in saline was injected. Three hours after the drug injection, rats were re-fed with regular chow in a previously setup pellet server. A touch sensing probe (Elekit PS-306) was connected to the pellet server. Because the bottom of the pellet server was placed 22 cm above the floor, purposeful food access behavior, but not general locomotor activities, was counted using this system. The ON/OFF signals from the sensor were fed into a laptop computer through a photo-coupler isolated digital I/O card (Contec Inc. PIO-16/16L) and automatically counted at 3-min intervals by software written by M.I."}, "[9]": {"system": "c-Fos and pSTAT3 in the VMN", "experiment": "Nuclear c-Fos and pSTAT3 in VMN after i.p. LGM", "assay_type": "in vivo, rat", "settings": "LGM 10 mg/kg i.p., 3 h, after RF, versus saline", "procedure": "(§4) To investigate the cellular consequences underlying the above behavioral responses, the different groups of rats that received RF were killed 3-h after the LGM (10 mg/kg) or saline injections. Subsequently, nuclear pSTAT3-ir and c-Fos-ir were visualized in the […] by immunohistochemistry. An astrocyte marker (glial fibrillary acidic protein, GFAP) was counterstained as a landmark of ARC because ARC is the astrocyte-rich ventral neuronal nucleus (Fig. 8A). […]\nas §2\n(§5) Male rats aged 2–3 months were individually housed in originally designed cylindrical chambers (30 cm ϕ, H30 cm). […] Because the bottom of the pellet server was placed 22 cm above the floor, purposeful food access behavior, but not general locomotor activities, was counted using this system. The ON/OFF signals from the sensor were fed into a laptop computer through a photo-coupler isolated digital I/O card (Contec Inc. PIO-16/16L) and automatically counted at 3-min intervals by software written by M.I."}, "[10]": {"system": "c-Fos and pSTAT3 in the ARC", "experiment": "Nuclear c-Fos and pSTAT3 in ARC after i.p. LGM", "assay_type": "in vivo, rat", "settings": "LGM 10 mg/kg i.p., 3 h, after RF, versus saline", "procedure": "as §4, §2, §5"}, "[11]": {"system": "CCK-2 receptor (C6 cells)", "experiment": "Ca2+ imaging (Fura-2), CCK-2 receptor agonist response in C6 cells", "assay_type": "cell-based, rat", "settings": "CCK-4 100 nM; n = 35/three dishes; Fura-2, 34°C, BSS pH 7.4", "procedure": "as §1\n(§6) C6 cells plated on 35 mm plastic dishes were gently rinsed with buffered salt solution (BSS) consisting of 130 mM NaCl, 5.4 mM KCl, 2 mM CaCl2, 1 mM MgCl2, 5.5 mM D-glucose, and 10 mM HEPES/NaOH (pH 7.4), and incubated in BSS supplemented with 6 µM Fura-2 AM (Dojindo Laboratories, Kumamoto, Japan) for 30 min in a CO2 incubator. Prior to photometry, the cells were rinsed again with BSS, incubated at 37°C for 15 min, and then continuously perfused with BSS at 34°C at a flow rate of 3 mL/min. Fluorescence images were obtained using an upright microscope (Axioplan2; Carl Zeiss, Thornwood, NY, USA) with a water-immersion objective (Achroplan×20 NA0.5w; Carl Zeiss). The wavelength of the excitation UV light (340 nm or 380 nm pulse; 250 msec) was switched using a filter wheel (Lambda 10-2; Sutter Instruments, Novato, CA, USA). […] The background fluorescence was also subtracted using the software. […]"}, "[12]": {"system": "CCK-2 receptor (C6 cells)", "experiment": "Ca2+ imaging (Fura-2), CCK-2 antagonism added to LGM in C6 cells", "assay_type": "cell-based, rat", "settings": "LY225910 100 nM additional to LGM 100 nM; CCK-8s 10 nM; p < 0.01", "procedure": "as §1, §6"}},
  "note": "“Also recorded” adds a separate entry of the source.",
  "data": [
    {"compound": "N#C/C(=C/c1ccc(O)c(O)c1)C(=O)NCc1ccccc1", "note": "[AG490]", "values": [
      {"measurement": "effect of JAK inhibitor on leptin amplification of CCK-8s-induced Ca2+ mobilization", "setting": "[1]; AG490 1 μM, 10 min, leptin pre-treatment, CCK-8s, n = 48/three dishes", "result": "leptin failed to amplify the CCK-8s-induced Ca^2+ mobilization; also recorded: significantly reduced leptin action for CCK-8s-induced Ca^2+ mobilization"},
      {"measurement": "nuclear pSTAT3-ir with JAK inhibitor", "setting": "[2]; AG490 1 µM from 15 min prior to leptin stimulation until fixation, 30 images/three dishes, p < 0.01", "result": "significantly reduced nuclear pSTAT3-ir below the level of un-stimulated controls; also recorded: blocked leptin-induced nuclear pSTAT3 elevation"},
      {"measurement": "cytosolic pSTAT3 signal with kinase inhibitor", "setting": "[2]", "result": "cytosolic pSTAT3 signal was not elevated"}
    ]},
    {"compound": "cholecystokinin [CCK]", "values": [
      {"measurement": "effect of CCK on satiety control in Zucker fa/fa rats", "setting": "[3]", "result": "attenuated"},
      {"measurement": "food intake, co-administration with leptin", "setting": "[4]", "result": "dramatically reduced food intake"},
      {"measurement": "food intake, co-administration with leptin", "setting": "[5]", "result": "dramatically reduced food intake"},
      {"measurement": "meal frequency", "setting": "[6]", "result": "reduce meal frequency"}
    ]},
    {"compound": "CCCCCN(CCCCC)C(=O)C(CCC(=O)O)NC(=O)c1ccc(Cl)c(Cl)c1", "note": "(stereo not shown) [LGM, lorglumide]", "values": [
      {"measurement": "effect of CCK-1 antagonist on leptin-induced Ca2+ responses", "setting": "[7]", "result": "reduced leptin-induced Ca^2+ responses"},
      {"measurement": "food access frequency at the onset of re-feeding relative to saline control", "setting": "[8]", "result": 1.8, "unit": "times"},
      {"measurement": "number of cells displaying c-Fos-ir, VMN", "setting": "[9]; 18 images in four rats, p < 0.05", "result": "significantly decreased the number of cells displaying c-Fos-ir"},
      {"measurement": "number of cells displaying pSTAT3-ir, VMN", "setting": "[9]; P < 0.05", "result": "increased number of cells displaying pSTAT3-ir"},
      {"measurement": "number of cells displaying c-Fos-ir, ARC", "setting": "[10]", "result": "failed to modulate the number of cells displaying c-Fos-ir"},
      {"measurement": "number of cells displaying pSTAT3-ir, ARC", "setting": "[10]; 14 images in four rats, p < 0.01", "result": "increased number of cells displaying pSTAT3-ir"}
    ]},
    {"compound": "Nc1ncnc2c1ncn2[C@@H]1O[C@H](COP(=O)(O)OP(=O)(O)OP(=O)(O)O)[C@@H](O)[C@H]1O", "note": "[ATP]", "values": [
      {"measurement": "Ca2+ mobilization, positive control", "setting": "[1]; ATP 100 µM at the end of experiment", "result": "High Ca^2+ mobilization"}
    ]},
    {"compound": "CCK-4", "values": [
      {"measurement": "C6 cells displaying Ca2+ transients", "setting": "[11]", "result": "approximately 20%"}
    ]},
    {"compound": "O=c1cc(N2CCOCC2)oc2c(-c3ccccc3)cccc12", "note": "[LY294002]", "values": [
      {"measurement": "effect of PI3K inhibitor on (leptin-amplified) CCK-8s-induced Ca2+ mobilization", "setting": "[1]; LY294002 50 µM, 10 min, leptin pre-treatment, CCK-8s, n = 45/three dishes", "result": "significantly inhibited CCK-8s-induced Ca^2+ mobilization; also recorded: significantly reduced leptin action for CCK-8s-induced Ca^2+ mobilization"},
      {"measurement": "cytosolic pSTAT3 signal with kinase inhibitor", "setting": "[2]", "result": "cytosolic pSTAT3 signal was not elevated"},
      {"measurement": "nuclear pSTAT3-ir with PI3K inhibitor", "setting": "[2]; LY294002 50 µM from 15 min prior to leptin stimulation until fixation, 30 images/three dishes, p < 0.01", "result": "significantly reduced nuclear pSTAT3-ir below the level of un-stimulated controls; also recorded: blocked leptin-induced nuclear pSTAT3 elevation"}
    ]},
    {"compound": "CC(C)Oc1cccc(-n2c(CCc3c[nH]c4ccc(Br)cc34)nc3ccccc3c2=O)c1", "note": "[LY225910]", "values": [
      {"measurement": "reduction of CCK-8s-induced Ca2+ transients", "setting": "[12]", "result": "almost completely reduced"}
    ]}
  ]
}
